According to patent US10925846B2, “Phenylketone carboxylate compounds and pharmaceutical compositions for the prevention and treatment of osteoporosis” (Liminal BioSciences Limited, priority 2014, dated 2021):

Experiments:
[1] = test system: ovariectomized (OVX) rats; assay: Ovariectomized-rat model of osteoporosis; type: in vivo, Sprague Dawley rats
Description: Although in comparison to humans, the skeletal mass of rats remains stable for a protracted period during their lifespan, rats can be ovariectomized to make them sex-hormone deficient, and to stimulate the accelerated loss of bone that occurs in women following menopause. Ovariectomy induced bone loss in the rat and postmenopausal bone loss share many similar characteristics. These include: increased rate of bone turnover with resorption exceeding formation; an initial rapid phase of bone loss followed by a much slower phase; greater loss of cancellous than cortical bone; decreased intestinal absorption of calcium; some protection against bone loss by obesity; and similar skeletal response to therapy with estrogen, tamoxifen, bisphosphonates, parathyroid hormone, calcitonin and exercise. These wide-ranging similarities are strong evidence that the ovariectomized rat bone loss model is suitable for studying problems that are relevant to postmenopausal bone loss.
Sprague Dawley rats (250 g) were ovariectomized (OVX) at day 0. Rats were treated by oral gavage with Compound I (10 mg/kg) from day 14 to day 68. Evaluation of different parameters (body weight, calcium loss, osteoclast markers (RANKL and TRAP mRNA expression), collagen content and histology was performed at day 68.

[2] = test system: LPS-stimulated RAW264.7 cells; assay: IL-12 production in LPS-stimulated RAW264.7 cells (IL-12 ELISA); type: cell-based, murine
Experimental: Accordingly, RAW264.7 cells are cultured with 100 ng/mL of LPS in presence or absence of the compound(s) for 21 h in a humidified atmosphere of 95% air-5% carbon dioxide at 37° C. IL-12 concentration in the culture medium is measured using the IL-12 ELISA according to the manufacturer (BD Biosciences) recommendations. […] Accordingly, an in vitro IL-12 production assay was used for screening potential inhibitors of osteoclastogenesis.

RAW264.7 cells = settings: cited from earlier work
[3] = compound concentration 0.020 mM

Which “body weight / ovariectomized-induced obesity” value ([1]; 10 mg/kg oral gavage day 14 to day 68, FIG. 1) does the source give for `CCCCCCCCC(Oc1ccc(C(=O)CCCCCCC)cc1)C(=O)[O-].[Na+]` (racemic) [Compound I, Sodium (RS)-2-[4-Octanoylphenoxy]decanoate] here?
Its value is “reduced ovariectomized-induced obesity”.

What about the “calcium loss in urine” value ([1]; 10 mg/kg oral gavage, day 28 to day 56, FIG. 2) of the same compound?
The value was “reduced significantly”.

What about the “acid phosphatase activity in serum” value ([1]; 10 mg/kg oral gavage, day 28 to day 56, FIG. 3) of the same compound?
The value was “reduced”.

And the “ratio of mRNA expression of RANKL/OPG in rat tibia” value ([1]; 10 mg/kg oral gavage, day 68, FIG. 4)?
Its value is “decreased”.

And the “collagen content in the metaphyse of the femur” value ([1]; 10 mg/kg oral gavage, day 68, FIG. 5)?
The value was “increased”.

What about the “bone loss in the metaphysis portion of the femur (histology)” value ([1]; 10 mg/kg oral gavage, day 68, FIGS. 6 and 7) of the same compound?
The value was “reduced bone loss”.

What about the IL-12 ([2]; compound concentration 0.0075 mM) of the same compound?
The IL-12 was 112 pg/mL.

Which IL-12 ([2]; compound concentration 0.1 mM) does the source give for `CCCCCCCC(=O)c1cccc2c1CC(C(=O)[O-])C2.[Na+]` (racemic) [Compound III, Sodium (RS)-4-Octanoylindane-2-carboxylate] here?
Its IL-12 is 24.95 pg/mL.

For `CCCCCCCC(=O)c1ccc(OC(CCCCCC)C(=O)[O-])cc1.[Na+]` (racemic) [Compound IV, Sodium (RS)-2-[4-Octanoylphenoxy]octanoate], which IL-12 [2, 3] is on record?
The IL-12 was 12.13 pg/mL.

What about the melting point of the same compound?
The melting point was 165 to 170 °C.

Which IL-12 ([2]; compound concentration 0.040 mM) does the source give for `CCCCCCCCC(Oc1ccc(C(=O)CCC)cc1)C(=O)[O-].[Na+]` (racemic) [Compound V, Sodium (RS)-2-[4-Butyrylphenoxy]decanoate] here?
Its IL-12 is 73.32 pg/mL.

What about the melting point of the same compound?
Its melting point is 262 to 278 °C.

For `CCCCCCCCC(Oc1ccc(C(=O)CCCCC)cc1)C(=O)[O-].[Na+]` (racemic) [Compound VI, Sodium (RS)-2-[4-Hexanoylphenoxy]decanoate], which IL-12 [2, 3] is on record?
The IL-12 was 53.5 pg/mL.

And the melting point?
The melting point was 275 to 280 °C.

For `CCCCCCCCC(Cc1ccc(C(=O)CCCCCCC)cc1)C(=O)[O-].[Na+]` (racemic) [Compound VII, Sodium (RS)-2-[4-Octanoylbenzyl]decanoate], which IL-12 ([2]; compound concentration 0.012 mM) is on record?
The IL-12 was 8 pg/mL.

Which results are given for `CCCCCCCCCC(=O)O` [capric acid]?
IL-12 production (RAW264.7 cells; LPS-stimulated RAW264.7 cells): increases; LPS-upregulated iNOS mRNA levels and nitric oxide (NO) production (RAW264.7 cells; LPS): inhibited; phosphatase (TRAP)-positive cells (osteoclast differentiation marker) (RAW264.7 cells; RAW264.7 cells): reduction; monocyte chemoattractant protein-1 (MCP-1) mRNA expression (RAW264.7 cells): inhibited
